# Test results from the supplement of paper PMC12613149.
# Tests used:
# [1] = collision cross section (TIMS, N2 drift gas) of the primary ion; higher = larger gas-phase ion size
# Experimental: (§1)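 Reference mixture of environmental contaminants analysed by RP-LC (BEH C18, 50 °C; ESI+ with water/MeOH plus formic acid and ammonium formate, ESI- with ammonium bicarbonate) coupled to a timsTOF Pro 2 with trapped ion mobility in nitrogen (ramp/accumulation 100 ms). CCS was calibrated with Agilent tune mix (CCS compendium) and averaged over five injections at 0.5-500 ng/mL. The table reports the lowest-CCS (putative monomer) peak; retention times are on the same gradient.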
# [2] = reversed-phase LC retention time (C18, 15 min MeOH gradient); higher = more hydrophobic / later elution
# Experimental: as §1
# [3] = ionization mode: ESI+, ion species: [M+H]+
# [4] = ionization mode: ESI-, ion species: [M-H]-
Compound,"collision cross section [1, 3]","reversed-phase LC retention time [2, 3]","collision cross section [1, 4]","reversed-phase LC retention time [2, 4]"
Cc1nc2n(c(=O)c1CCN1CCC(c3noc4cc(F)ccc34)CC1)CCCC2 [Risperidone],205.9 Å²,10.4 min,,
CC1=NNC(=O)N(/N=C/c2cccnc2)C1 [Pymetrozine],153.68 Å²,5.8 min,,
O=C(O)C(F)(F)C(F)(F)C(F)(F)C(F)(F)C(F)(F)C(F)(F)C(F)(F)F [Perfluorooctanoic acid],,,155.67 Å²,14.7 min
Cc1cc(C)nc(NS(=O)(=O)c2ccc(N)cc2)n1 [Sulfamethazine],163.66 Å²,7.95 min,165.06 Å²,7.46 min
CN1CCN(C2=Nc3cc(Cl)ccc3Nc3ccccc32)CC1 [Clozapine],179.65 Å²,11.6 min,,
O=C(OC1CCCCC1)c1ccccc1C(=O)OC1CCCCC1 [Dicyclohexylphthalate],187.61 Å²,17.5 min,,
O=S(=O)(O)CCC(F)(F)C(F)(F)C(F)(F)C(F)(F)C(F)(F)C(F)(F)F [6:2 fluorotelomer sulfonic acid],,,168.03 Å²,14.7 min
CNC1(c2ccccc2Cl)CCCCC1=O (configuration not stated) [Ketamine],149.17 Å²,8.79 min,,
CCC(=O)[C@@]1(C)[C@H](C)C[C@H]2[C@@H]3CCC4=CC(=O)C=C[C@]4(C)[C@H]3[C@@H](O)C[C@@]21C [Rimexolone],192.28 Å²,16 min,191.62 Å²,16.4 min
O=C(O)c1cn(C2CC2)c2cc(N3CCNCC3)c(F)cc2c1=O [Ciprofloxacin],175.82 Å²,8.22 min,,
N#Cc1c[nH]cc1-c1cccc2c1OC(F)(F)O2 [Fludioxonil],,,145.03 Å²,14.4 min
CCC[C@@H]1C[C@@H](C(=O)N[C@@H]([C@H]2O[C@H](SC)[C@H](O)[C@@H](O)[C@H]2O)[C@@H](C)O)N(C)C1 [Lincomycin],202.11 Å²,7.84 min,197.99 Å²,13.2 min
CC(C)NCC(O)COc1ccc(COCCOC(C)C)cc1 (configuration not stated) [Bisoprolol],191.63 Å²,11 min,,
c1ccc(Nc2cccc3ccccc23)cc1 [N-Phenyl-1-naphthylamine],153.28 Å²,16.1 min,,
CC(C)(C#N)c1cc(Cn2cncn2)cc(C(C)(C)C#N)c1 [Anastrozole],185.09 Å²,11.3 min,,
"Oc1ccccc1-c1ccccc1O [2,2'-Dihydroxybiphenyl]",,,143.93 Å²,15.6 min
CCCCC(CC)COP(=O)(OCC(CC)CCCC)OCC(CC)CCCC (configuration not stated) [Tris(2-ethylhexl)phosphate],221.12 Å²,19.8 min,,
C#C[C@]1(OC(C)=O)CC[C@H]2[C@@H]3CCC4=C/C(=N/O)CC[C@@H]4[C@H]3CC[C@@]21CC [Norgestimate],200.98 Å²,16.3 min,,
C[C@]12CC[C@@H]3c4ccc(O)cc4CC[C@H]3[C@@H]1CC[C@@H]2O [17-beta-Estradiol],,,173.91 Å²,14.5 min
CCNc1nc(Cl)nc(NCC)n1 [Simazine],142.98 Å²,11.5 min,,
CCC(=C(c1ccc(O)cc1)c1ccc(OCCN(C)C)cc1)c1ccccc1 [4-Hydroxytamoxifen],202.55 Å²,,214.38 Å²,
CC(=O)[C@H]1CC[C@H]2[C@@H]3CCC4=CC(=O)CC[C@]4(C)[C@H]3CC[C@]12C [Progesterone],180.93 Å²,,,
CC(C)(C)c1ccc(O)cc1 [4-tert-Butylphenol],,,137.69 Å²,
"N[C@@H](Cc1cc(I)c(Oc2ccc(O)c(I)c2)c(I)c1)C(=O)O [3,3',5-Triiodo-L-thyronine]",209.12 Å²,,199.54 Å²,
